In ChEMBL document CHEMBL3621096, “Discovery of Potent and Selective Inhibitors for ADAMTS-4 through DNA-Encoded Library Technology (ELT)” (ACS Med Chem Lett, 2015):

These molecules were tested against T1, A disintegrin and metalloproteinase with thrombospondin motifs 4 (Homo sapiens, UniProt O75173) (assay: Inhibition of recombinant human ADAMTS4 (213 to 575 amino acid residues) using WAAG-3R as substrate preincubated for 15 mins followed by substrate addition measured every 30 secs for 1 hr).
T1 sequence (O75173 whole entry): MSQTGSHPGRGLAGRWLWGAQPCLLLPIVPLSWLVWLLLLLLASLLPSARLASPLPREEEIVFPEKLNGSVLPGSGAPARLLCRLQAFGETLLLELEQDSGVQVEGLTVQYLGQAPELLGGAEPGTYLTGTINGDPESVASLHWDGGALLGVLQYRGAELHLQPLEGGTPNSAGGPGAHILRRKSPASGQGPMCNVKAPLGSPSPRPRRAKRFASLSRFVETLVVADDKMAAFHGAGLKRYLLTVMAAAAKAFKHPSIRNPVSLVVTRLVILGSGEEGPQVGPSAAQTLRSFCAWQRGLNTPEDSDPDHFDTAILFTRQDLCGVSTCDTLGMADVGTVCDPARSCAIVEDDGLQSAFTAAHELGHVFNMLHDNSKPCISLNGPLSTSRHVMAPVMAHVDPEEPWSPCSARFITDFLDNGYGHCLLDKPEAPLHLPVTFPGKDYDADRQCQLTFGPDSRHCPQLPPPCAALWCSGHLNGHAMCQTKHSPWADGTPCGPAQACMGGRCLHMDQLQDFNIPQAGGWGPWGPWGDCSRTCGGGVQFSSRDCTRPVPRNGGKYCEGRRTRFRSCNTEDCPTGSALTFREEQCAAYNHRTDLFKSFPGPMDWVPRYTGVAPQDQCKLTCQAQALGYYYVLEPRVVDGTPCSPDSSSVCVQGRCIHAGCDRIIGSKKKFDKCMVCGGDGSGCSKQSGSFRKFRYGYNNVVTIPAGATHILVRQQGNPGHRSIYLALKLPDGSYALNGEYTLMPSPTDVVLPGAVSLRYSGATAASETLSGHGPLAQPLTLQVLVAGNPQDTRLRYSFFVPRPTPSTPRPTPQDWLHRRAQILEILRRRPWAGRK

Row | SMILES | IC50
1 | CCN(C(=O)c1ccc(CNc2nc(NCCc3ccco3)nc(N3CCc4cc(OC)c(OC)cc4C3)n2)cc1)c1cccc(C)c1 | 163 nM
2 | CCN(C(=O)c1ccc(CNc2ncnc(N3CCCCC3)n2)cc1)c1cccc(C)c1 | > 10000 nM
3 | CCN(C(=O)c1ccc(CNc2ncnc(N3CCc4ccc(F)cc4C3)n2)cc1)c1cccc(C)c1 | 333 nM
4 | CCN(C(=O)c1ccc(CNc2nc(NC(C)C)nc(N3CCc4cc(OC)c(OC)cc4C3)n2)cc1)c1cccc(C)c1 | 60 nM
5 | CCN(C(=O)c1ccc(CNc2ncnc(N3CCc4cc(OC)c(OC)cc4C3)n2)cc1)c1cccc(C)c1 | 23 nM
6 | CCN(C(=O)c1ccc(CNc2ncnc(N3Cc4ccccc4C3)n2)cc1)c1cccc(C)c1 | 5600 nM
7 | CCN(C(=O)c1ccc(CNc2nc(NCC(=O)O)nc(N3CCc4cc(OC)c(OC)cc4C3)n2)cc1)c1cccc(C)c1 | 88 nM
8 | CCN(C(=O)c1ccc(CNc2nc(NCCN(C)C)nc(N3CCc4cc(OC)c(OC)cc4C3)n2)cc1)c1cccc(C)c1 | 14 nM
9 | CCN(C(=O)c1ccc(CNc2nc(NCCN(C)C)nc(N3CCc4ccccc4C3)n2)cc1)c1cccc(C)c1 | 8 nM
10 | CCN(C(=O)c1ccc(CNc2nc(Nc3ccccc3)nc(N3CCc4cc(OC)c(OC)cc4C3)n2)cc1)c1cccc(C)c1 | 181 nM
11 | CCN(C(=O)c1ccc(CNc2nc(NCCN3CCN(C)CC3)nc(N3CCCc4ccccc43)n2)cc1)c1cccc(C)c1 | 6500 nM
12 | CCN(C)C(=O)c1ccc(CNc2nc(NCCN(C)C)nc(N3CCc4cc(OC)c(OC)cc4C3)n2)cc1 | 81 nM
13 | COc1cc2c(cc1OC)CN(c1nc(NCCN3CCN(C)CC3)nc(NCc3ccc(C(=O)Nc4cccc(C)c4)cc3)n1)CC2 | 518 nM
14 | CCN(C)C(=O)c1ccc(CNc2nc(N3CCN(C)CC3)nc(N3CCc4cc(OC)c(OC)cc4C3)n2)cc1 | 8500 nM
15 | CCN(C(=O)c1ccc(CNc2nc(NCCN3CCN(C)CC3)nc(N3CCc4cc(OC)c(OC)cc4C3)n2)cc1)c1cccc(C)c1 | 10 nM
16 | CCN(C(=O)c1ccc(CNc2nc(O)nc(N3CCc4cc(OC)c(OC)cc4C3)n2)cc1)c1cccc(C)c1 | 22 nM
17 | CCN(C(=O)c1ccc(CNc2ncnc(NCc3ccc(OC)c(OC)c3)n2)cc1)c1cccc(C)c1 | 158 nM

Row | SMILES | IC50
18 | CCN(C)C(=O)c1ccc(CNc2nc(N3CCN(C)CC3)nc(N3CCc4ccccc4C3)n2)cc1 | 5500 nM
19 | CCN(C(=O)c1ccc(CNc2nc(NC3CCCCC3)nc(N3CCc4cc(OC)c(OC)cc4C3)n2)cc1)c1cccc(C)c1 | 284 nM
20 | CCN(C)C(=O)c1ccc(CNc2nc(NCCN(C)C)nc(N3CCc4ccccc4C3)n2)cc1 | 43 nM
21 | CCN(C(=O)c1ccc(CNc2ncnc(N3CCc4ccccc4C3)n2)cc1)c1cccc(C)c1 | 63 nM
22 | CCN(C(=O)c1ccc(CNc2nc(NCCN3CCN(C)CC3)nc(N3CCc4ccccc4C3)n2)cc1)c1cccc(C)c1 | 6 nM
23 | COc1cc2c(cc1OC)CN(c1nc(NCCN3CCN(C)CC3)nc(NCc3ccc(C(=O)O)cc3)n1)CC2 | > 10000 nM
24 | CCN(C)C(=O)c1ccc(CNc2nc(NCCN3CCN(C)CC3)nc(N3CCc4cc(OC)c(OC)cc4C3)n2)cc1 | 64 nM
25 | CCN(C)C(=O)c1ccc(CNc2ncnc(N3CCc4ccccc4C3)n2)cc1 | 1700 nM
26 | CNC(=O)c1ccc(CNc2nc(NCCN3CCN(C)CC3)nc(N3CCc4cc(OC)c(OC)cc4C3)n2)cc1 | 3000 nM
27 | CCN(C(=O)c1ccc(CNc2nc(NCc3ccccc3)nc(N3CCc4ccccc4C3)n2)cc1)c1cccc(C)c1 | 61 nM
28 | CCN(C(=O)c1ccc(CNc2ncnc(N3CCc4cc(F)ccc4C3)n2)cc1)c1cccc(C)c1 | 370 nM
29 | COc1cc2c(cc1OC)CN(c1nc(NCCN3CCN(C)CC3)nc(NCc3ccccc3)n1)CC2 | 3000 nM
30 | CCN(C(=O)c1ccc(CNc2nc(Cl)nc(N3CCc4cc(OC)c(OC)cc4C3)n2)cc1)c1cccc(C)c1 | 102 nM
31 | CCN(C(=O)c1ccc(CNc2nc(NC)nc(N3CCc4cc(OC)c(OC)cc4C3)n2)cc1)c1cccc(C)c1 | 30 nM
32 | CCN(C(=O)c1ccc(CNc2nc(NCc3ccccc3)nc(N3CCc4cc(OC)c(OC)cc4C3)n2)cc1)c1cccc(C)c1 | 60 nM
33 | CCN(C)C(=O)c1ccc(CNc2ncnc(N3CCc4cc(OC)c(OC)cc4C3)n2)cc1 | 1820 nM

These molecules were tested against T2, A disintegrin and metalloproteinase with thrombospondin motifs 5 (Homo sapiens) (UniProt Q9UNA0) (assay: Inhibition of ADAMTS5 (unknown origin) using WAAG-3R as substrate at 10 uM preincubated for 15 mins followed by substrate addition measured every 30 secs for 1 hr relative to control).
T2 sequence (whole entry): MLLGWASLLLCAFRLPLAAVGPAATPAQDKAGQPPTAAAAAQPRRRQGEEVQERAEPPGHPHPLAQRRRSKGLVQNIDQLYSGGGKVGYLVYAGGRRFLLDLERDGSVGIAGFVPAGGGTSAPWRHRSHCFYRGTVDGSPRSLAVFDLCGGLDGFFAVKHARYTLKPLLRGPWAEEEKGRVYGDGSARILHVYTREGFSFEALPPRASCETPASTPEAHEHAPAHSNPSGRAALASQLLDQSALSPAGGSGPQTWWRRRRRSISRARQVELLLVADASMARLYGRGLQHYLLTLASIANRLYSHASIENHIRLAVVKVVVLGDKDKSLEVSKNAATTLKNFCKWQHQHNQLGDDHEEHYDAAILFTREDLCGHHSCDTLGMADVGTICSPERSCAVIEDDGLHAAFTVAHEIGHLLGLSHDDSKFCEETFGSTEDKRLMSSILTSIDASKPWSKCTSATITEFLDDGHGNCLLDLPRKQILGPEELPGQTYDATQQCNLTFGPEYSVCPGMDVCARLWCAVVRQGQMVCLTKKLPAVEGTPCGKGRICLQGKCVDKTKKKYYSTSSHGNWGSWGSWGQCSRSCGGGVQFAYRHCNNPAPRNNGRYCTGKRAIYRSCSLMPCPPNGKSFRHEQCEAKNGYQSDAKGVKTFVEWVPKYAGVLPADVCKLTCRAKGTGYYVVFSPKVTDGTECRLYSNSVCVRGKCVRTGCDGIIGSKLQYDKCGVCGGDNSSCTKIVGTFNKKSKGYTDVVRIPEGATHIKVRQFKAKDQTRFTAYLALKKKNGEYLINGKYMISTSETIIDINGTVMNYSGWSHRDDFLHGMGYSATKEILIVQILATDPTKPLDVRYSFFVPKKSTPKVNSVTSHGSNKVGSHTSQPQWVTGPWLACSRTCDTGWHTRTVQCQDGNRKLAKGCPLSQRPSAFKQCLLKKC

Row | SMILES | inhibition
34 | CCN(C(=O)c1ccc(CNc2nc(NCCN3CCN(C)CC3)nc(N3CCc4cc(OC)c(OC)cc4C3)n2)cc1)c1cccc(C)c1 | 30%

These molecules were tested against T3, A disintegrin and metalloproteinase with thrombospondin motifs 5 (Homo sapiens, UniProt Q9UNA0) (assay: Inhibition of ADAMTS5 (unknown origin) using WAAG-3R as substrate preincubated for 15 mins followed by substrate addition measured every 30 secs for 1 hr).
T3 sequence (Q9UNA0 whole entry): T2 sequence (whole entry)

Row | SMILES | IC50
35 | CCN(C(=O)c1ccc(CNc2nc(NCCN3CCN(C)CC3)nc(N3CCc4cc(OC)c(OC)cc4C3)n2)cc1)c1cccc(C)c1 | > 10000 nM

Each molecule was assayed against T4, A disintegrin and metalloproteinase with thrombospondin motifs 13 (Homo sapiens, UniProt Q76LX8) (assay: Inhibition of human recombinant ADAMTS13 using FRETSVWF73 as substrate by fluorescence assay).
T4 sequence (Q76LX8 whole entry): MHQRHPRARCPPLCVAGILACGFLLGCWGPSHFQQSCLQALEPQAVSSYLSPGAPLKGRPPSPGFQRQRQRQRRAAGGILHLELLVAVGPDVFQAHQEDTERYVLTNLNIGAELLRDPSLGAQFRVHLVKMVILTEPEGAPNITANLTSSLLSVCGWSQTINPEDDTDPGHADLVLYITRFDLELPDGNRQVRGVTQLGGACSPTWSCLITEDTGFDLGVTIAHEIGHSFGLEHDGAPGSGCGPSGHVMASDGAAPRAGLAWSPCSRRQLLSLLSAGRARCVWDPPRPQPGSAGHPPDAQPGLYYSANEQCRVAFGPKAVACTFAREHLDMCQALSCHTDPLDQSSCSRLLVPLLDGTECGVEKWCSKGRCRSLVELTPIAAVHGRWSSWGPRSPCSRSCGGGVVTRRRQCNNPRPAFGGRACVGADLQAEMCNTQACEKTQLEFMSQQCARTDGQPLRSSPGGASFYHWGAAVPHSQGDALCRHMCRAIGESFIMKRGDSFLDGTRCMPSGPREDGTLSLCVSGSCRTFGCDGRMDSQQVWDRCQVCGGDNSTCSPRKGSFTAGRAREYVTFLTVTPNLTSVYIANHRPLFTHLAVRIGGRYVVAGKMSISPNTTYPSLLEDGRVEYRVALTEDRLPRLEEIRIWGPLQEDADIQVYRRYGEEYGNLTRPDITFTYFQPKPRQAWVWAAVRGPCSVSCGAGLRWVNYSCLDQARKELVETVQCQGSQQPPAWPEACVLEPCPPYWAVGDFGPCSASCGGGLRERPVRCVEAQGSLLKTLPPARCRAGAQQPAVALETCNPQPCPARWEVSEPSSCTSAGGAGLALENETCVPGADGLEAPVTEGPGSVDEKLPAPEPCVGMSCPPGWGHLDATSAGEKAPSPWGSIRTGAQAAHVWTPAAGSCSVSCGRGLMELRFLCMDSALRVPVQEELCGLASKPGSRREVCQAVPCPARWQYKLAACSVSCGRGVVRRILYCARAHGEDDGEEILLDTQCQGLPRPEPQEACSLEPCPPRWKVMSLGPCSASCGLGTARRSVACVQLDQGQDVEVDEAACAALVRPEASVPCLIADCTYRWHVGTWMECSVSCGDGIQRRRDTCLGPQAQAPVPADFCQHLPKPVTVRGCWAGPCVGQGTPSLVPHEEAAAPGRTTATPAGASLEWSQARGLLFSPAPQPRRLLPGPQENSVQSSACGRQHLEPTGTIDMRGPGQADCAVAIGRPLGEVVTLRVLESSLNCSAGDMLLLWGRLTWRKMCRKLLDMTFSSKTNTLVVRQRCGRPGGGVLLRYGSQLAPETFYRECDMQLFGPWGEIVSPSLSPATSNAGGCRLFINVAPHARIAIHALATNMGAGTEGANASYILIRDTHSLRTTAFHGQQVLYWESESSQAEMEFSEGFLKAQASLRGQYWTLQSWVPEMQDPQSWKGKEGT

Row | SMILES | IC50
36 | CCN(C(=O)c1ccc(CNc2nc(NCCN3CCN(C)CC3)nc(N3CCc4cc(OC)c(OC)cc4C3)n2)cc1)c1cccc(C)c1 | > 10000 nM

Each molecule was assayed against Collagenase 3 (Homo sapiens, UniProt P45452) (assay: Inhibition of human recombinant MMP13 using 5-FAMTPGPLGL[Dap(DNP)]ARRK(5-TAMRA)-amide as substrate after 45 mins).

Row | SMILES | IC50
37 | CCN(C(=O)c1ccc(CNc2nc(NCCN3CCN(C)CC3)nc(N3CCc4cc(OC)c(OC)cc4C3)n2)cc1)c1cccc(C)c1 | > 10000 nM

The molecules below were run against Disintegrin and metalloproteinase domain-containing protein 17 (Homo sapiens, UniProt P78536) (assay: Inhibition of human recombinant TACE using Mca-PLAQAV-Dpa-RSSSR-NH2 as substrate preincubated for 15 mins measured every 30 secs for 30 mins by fluorescence assay).
Disintegrin and metalloproteinase domain-containing protein 17, sequence (P78536 whole entry, the tested form may be a part): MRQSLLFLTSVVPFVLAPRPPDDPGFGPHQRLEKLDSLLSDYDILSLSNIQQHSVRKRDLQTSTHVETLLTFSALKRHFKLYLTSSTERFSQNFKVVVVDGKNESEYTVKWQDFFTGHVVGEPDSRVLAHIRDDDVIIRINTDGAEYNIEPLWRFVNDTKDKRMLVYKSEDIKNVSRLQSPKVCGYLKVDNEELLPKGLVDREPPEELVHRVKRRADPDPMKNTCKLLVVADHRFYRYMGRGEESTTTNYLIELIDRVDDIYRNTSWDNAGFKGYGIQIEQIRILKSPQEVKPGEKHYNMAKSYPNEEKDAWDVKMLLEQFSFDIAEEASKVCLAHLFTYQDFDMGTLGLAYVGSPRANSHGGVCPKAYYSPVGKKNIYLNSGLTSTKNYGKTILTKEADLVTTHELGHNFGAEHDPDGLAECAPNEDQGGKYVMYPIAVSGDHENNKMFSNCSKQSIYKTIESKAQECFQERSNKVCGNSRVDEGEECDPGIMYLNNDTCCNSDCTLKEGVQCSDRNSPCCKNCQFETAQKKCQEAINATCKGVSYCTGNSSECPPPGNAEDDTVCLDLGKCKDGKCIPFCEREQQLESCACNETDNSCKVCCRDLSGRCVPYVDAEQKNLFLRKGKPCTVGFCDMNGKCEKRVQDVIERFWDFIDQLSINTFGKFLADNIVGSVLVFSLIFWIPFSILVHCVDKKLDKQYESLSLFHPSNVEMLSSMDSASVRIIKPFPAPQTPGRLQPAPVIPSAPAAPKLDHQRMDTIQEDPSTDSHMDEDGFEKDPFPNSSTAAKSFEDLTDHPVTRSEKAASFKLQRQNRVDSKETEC

Row | SMILES | IC50
38 | CCN(C(=O)c1ccc(CNc2nc(NCCN3CCN(C)CC3)nc(N3CCc4cc(OC)c(OC)cc4C3)n2)cc1)c1cccc(C)c1 | > 10000 nM
